Measured values published in patent publication US20070299114A1, “Biaryl Derivatives” (Shionogi & Co., Ltd., priority 2004, published 2007).

Columns and labels:
[1] = test system: anti-OVA IgE antibody; assay: suppression of IgE antibody production to anti-ovalbumin (OVA) in immunized mice, PCA titer; format: in vivo; settings: anti-OVA IgE antibody value (PCA titer, Log2 of maximum serum dilution rate) in BALB/c mice
Procedure: Effect of Suppression of IgE Antibody Production to Anti-Ovalbumin (OVA)
BALB/c mice (female, 8 to 10 week old) purchased from Japan Charles River (Kanagawa) and Wistar rats (female, 8 to 10 week old) purchased from Japan SLC (Sizuoka) were used.
BALB/c mice were immunized by intraperitoneally injecting 0.2 ml of a solution obtained by suspending 2 μg of ovalbumin (OVA) and an aluminum hydroxide gel (1 mg) in a brine. After ten days, blood was taken from a heart, the serum was separated, and an IgE antibody value was measured.
[…] Administration was performed from immunization date to the day before blood collection for consecutive 10 days.
4) Measurement of Anti-OVA IgE Antibody Value (PCA Titer)
The resulting mouse serum was prepared into a 2-fold dilution series with a brine, and each 50 μl of this was subcutaneously injected into a back of a pre-shaved Wistar rat. After 24 hours, 0.5 ml of a brine containing 1 mg of OVA and 5 mg of an Evans Blue dye was intravenously injected to induce a passive skin anaphylactic reaction (PCA).

[2] = test system: Human lymphocyte; assay: suppression of IgE antibody production in human lymphocyte stimulated with anti-human CD40 antibody and IL-4; format: cell-based; settings: 216 h; IgE antibody production by human lymphocyte, anti-human CD40 antibody + IL-4, cultured for 9 days, ELISA
Procedure: Effect of Suppressing Antibody Production Using Human Lymphocyte
1) Human Peripheral Blood
Human peripheral blood was collected with a plastic syringe containing heparin (final concentration 1.5%) from a vein of an adult healthy person, and subjected to collection of lymphocyte immediately after blood collection.
To the RPMI medium (Sigma) were added 10% of fetal bovine serum, (HyClone Lab.) which had been immobilized at 56° C. for 30 minutes, penicillin (100 units/ml) and streptomycin (100 μg/ml) (Invitrogen), which was used.
The present compound was dissolved in dimethyl sulfoxide (Nakalai Tesque) to 2 mg/ml and, thereafter, the solution was diluted with a medium to a final concentration of 0.01 pg/ml to 10 μg/ml.
Human peripheral blood was mixed with an equal amount of PBS-10 mM EDTA, 10 ml of this was overlaid on a tube containing 3 ml of Ficoll-Paque Plus (Pharmacia Biotech), followed by centrifugation at room temperature and 300×g for 30 minutes to obtain a lymphocyte layer. The collected cell suspension was centrifugation-washed with a sterilized Hanks's balanced salt solution (Invitrogen), passed through a nylon mesh, and centrifugation-washed with a medium, which was used in an experiment as human lymphocyte.
5) Inducement of IgE Antibody Production Due to B cell Stimulation
Human lymphocyte was seeded on a 96-well culturing plate (Sumitomo Bakelite) to 2×10^5 cells per well, and the compound, an anti-human CD40 antibody (Pharmingen, 2 μg/ml), and human recombinant interleukin-4 (IL-4) (PEPROTECH, 0.1 μg/ml) were added, followed by culturing at 37° C. under the presence of 5% CO2 (0.2 ml/well). After cultured for 9 days, an amount of an antibody produced in the supernatant was quantitated by a specific ELISA method.
6) Quantitation of IgE Antibody
For quantitating IgE, a commercially available kit, MESACUP IgE Test (Medical & Biological Laboratories Co., Ltd.) was used. An experimental method was according to the manual, an experiment was performed duplicately, and an average was obtained.

[3] = molecular target: T1, dihydrooroate dehydrogenase (Homo sapiens, UniProt Q02127); assay: dihydroorotate dehydrogenase inhibition, U-937 mitochondrial/microsomal fraction, DCIP absorbance at 620 nm; format: biochemical; settings: DHODH of human U-937 cell mitochondrial/microsomal fraction; 37° C., 120 minutes
T1 construct: ultracentrifugation at 4° C. and 120,000×g for 60 minutes afforded a mitochondrial/microsomal fraction; endogenous in cells; host or cells: U-937 (human histiocytic lymphoma cell line), mitochondrial/microsomal fraction
Procedure: Method of Testing dihydrooroate dehydrogenase Inhibition
Human U-937 cell (human histiocytic lymphoma cell line) was sonicated in a homogenizing buffer (20 mM Tris-HC1, pH 7.4, containing 2 mM EDTA and protease inhibitor cocktail), and this was centrifuged at 4° C. and 1,200×g for 15 minutes to remove cell debris. Further, ultracentrifugation at 4° C. and 120,000×g for 60 minutes afforded a mitochondrial/microsomal fraction. The resulting fraction was quantitated for a protein, and prepared to 10 mg/ml, which was freezing-stored in a −40° C. in a refrigerator until measurement. To 150 μl of the reaction solution (50 mM Tris-HC1, pH 7.4, containing 0.1% Triton X-100, 1 mM KCN, 100 μM coenzyme Q10, 200 μM DCIP), were added 10 μl of a dilution series of the compound and 0.2 mg of a mitochondrial/microsomal fraction, followed by pre-incubation at 37° C. for 30 minutes. Then, 20 μl of a 5 mM DHO solution (final concentration […]), which is a substrate, was added, this was incubated at 37° C. for 120 minutes, and an absorbance at a measurement wavelength of 620 nm was measured. A rate of suppression of a compound at each concentration relative to a change in an absorbance due to the enzyme reaction was obtained, and a concentration indicating 50% inhibition (IC50 value) was calculated to assess the inhibition activity of the compound.

[4] = dose 10 mg/kg orally for consecutive 10 days
[5] = dose 40 mg/kg orally for consecutive 10 days

T1 sequence (Q02127 whole entry): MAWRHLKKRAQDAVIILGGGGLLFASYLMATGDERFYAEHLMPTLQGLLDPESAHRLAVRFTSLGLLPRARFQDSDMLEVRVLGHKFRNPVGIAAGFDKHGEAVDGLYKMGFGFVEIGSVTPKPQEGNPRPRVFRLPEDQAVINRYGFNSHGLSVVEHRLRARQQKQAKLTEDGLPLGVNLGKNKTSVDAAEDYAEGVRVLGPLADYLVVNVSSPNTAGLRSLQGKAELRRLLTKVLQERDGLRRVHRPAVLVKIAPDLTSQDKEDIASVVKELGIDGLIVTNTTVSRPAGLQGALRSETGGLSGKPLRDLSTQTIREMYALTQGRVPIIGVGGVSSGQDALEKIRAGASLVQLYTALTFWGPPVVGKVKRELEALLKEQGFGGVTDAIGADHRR

| SMILES | PCA [1, 4] | IC50 [2] | PCA [1, 5] | other results |
| --- | --- | --- | --- | --- |
| CC/C(=C\c1cc(C)c(-c2ccc(NC(C)C)cc2)cc1C)C(=O)NC1CCCC1 [Compound 142] | 0.0 | 8.4 ng/mL | – | – |
| C/C(=C\C(=O)NC(C)C)c1cc(C)c(-c2ccc3[nH]ccc3c2)cc1C [Compound 252] | – | 75 ng/mL | 0< | IC50 [3]: 13.6 nM |
| COc1c(C)c(-c2ccc(NC3CCCCC3)cc2)c(OC)c(C)c1/C=C(\C)C(=O)N[C@H](C)C(=O)O [Compound 562] | – | 8.4 ng/mL | 0< | – |
| COc1c(C)c(-c2ccc(NC3CCCCC3)cc2)c(OC)c(C)c1/C=C(\C)C(=O)O [Compound 559] | 4 | 7.2 ng/mL | – | – |
| Cc1cc(-c2ccc(NC3CCCC3)cc2)c(C)cc1/C=C(\F)C(=O)NCCC(=O)O [Compound 408] | – | 8 ng/mL | 0< | – |
| CC/C(=C\c1c(C)c(F)c(-c2ccc(NC(C)C)cc2)c(C)c1F)C(=O)N[C@H](C)C(=O)O [Compound 495] | 4.7 | 41 ng/mL | – | – |
| COc1cc(-c2ccc(NC(C)C)cc2F)c(OC)cc1/C(C)=C/C(=O)NC(C)C [Compound 40] | – | 3.7 ng/mL | 1.3 | – |
| C/C(=C\c1cc(C)c(-c2ccc(NC(C)C)cc2F)cc1C)C(=O)NC(C)C [Compound 122] | 4.7 | 0.5 ng/mL | – | IC50 [3]: 10.5 nM |
| Cc1cc(-c2ccc(NC3CCCC3)cc2)c(C)cc1/C=C(\F)C(=O)NC(C)C [Compound 397] | – | 0.3 ng/mL | – | IC50 [3]: 6.84 nM; PCA ([1]; dose 20 mg/kg orally for consecutive 10 days): 0< |
| C/C(=C\c1ccc(-c2ccc3[nH]ccc3c2)cc1)C(=O)NC1CCCC1 [Compound 4] | – | – | – | melting point: 154 to 157 °C |
| CC/C(=C\c1c(C)c(F)c(-c2ccc(NC(C)C)cc2)c(C)c1F)C(=O)O [Compound 493] | 4.0 | 9.4 ng/mL | – | – |
| COc1cc(-c2ccc(NC(C)C)cc2F)c(OC)cc1/C=C(\C)C(=O)O [Compound 22] | – | – | – | melting point: 213 to 216 °C |
| C/C(=C\c1cc(C)c(-c2ccc3[nH]ccc3c2)cc1C)C(=O)NC(C)C [Compound 76] | 4.3 | 1.6 ng/mL | – | – |
| COc1c(C)c(-c2ccc(NCc3ccc(C)o3)cc2)c(OC)c(C)c1/C=C(\C)C(=O)O [Compound 571] | 1.3 | 6.4 ng/mL | – | – |
| CCC/C=C/CNc1ccc(-c2c(C)c(OC)c(/C=C(\C)C(=O)O)c(C)c2OC)cc1 [Compound 573] | 0< | 6.6 ng/mL | – | – |
| COc1c(C)c(-c2ccc(NC(C)C)cc2)c(OC)c(C)c1/C=C(\C)C(=O)O [Compound 526] | – | 0.9 ng/mL | 2.7 | – |
| C/C(=C\c1cc(F)c(-c2ccc(NC(C)C)cc2)cc1F)C(=O)NCC(=O)O [Compound 21] | – | – | – | melting point: 156 to 158 °C |
| Cc1cc(-c2ccc(NC(C)C)cc2F)c(C)cc1/C=C(/F)C(=O)NC(C)C [Compound 201] | 5.3 | 0.6 ng/mL | – | IC50 [3]: 5.17 nM |
| C/C(=C\c1c(C)c(C)c(-c2ccc(NC3CCCC3)cc2F)c(C)c1C)C(=O)NC1CCCC1 [Compound 459] | 2.7 | 0.8 ng/mL | – | – |
| C/C(=C\c1ccc(-c2ccc3[nH]ccc3c2)cc1)C(=O)O [Compound 1] | – | – | – | melting point: 195 to 198 °C |
| C/C(=C\c1cc(C)c(-c2ccc(NC(C)C)cc2)cc1C)C(=O)NC1CCCCC1 [Compound 80] | 5.3 | 4.6 ng/mL | – | – |
| CCS(=O)(=O)NC(=O)/C(C)=C/c1cc(C)c(-c2ccc(NCc3ccco3)cc2F)cc1C [Compound 347] | – | 60 ng/mL | 2.0 | IC50 [3]: 6.16 nM |
| C/C(=C\c1c(C)c(F)c(-c2ccc(NC(C)C)cc2)c(C)c1F)C(=O)O [Compound 486] | 0< | 13.5 ng/mL | – | – |
| CC/C=C/CNc1ccc(-c2c(C)c(OC)c(/C=C(\C)C(=O)O)c(C)c2OC)cc1 [Compound 585] | 1.0 | 4.8 ng/mL | – | – |
| C/C(=C\c1c(C)c(C)c(-c2ccc(NC(C)C)cc2F)c(C)c1C)C(=O)N[C@H](C)C(=O)O [Compound 420] | – | 39 ng/mL | 0< | – |
| C/C(=C\c1c(C)c(F)c(-c2ccc(NC(C)C)nc2)c(C)c1F)C(=O)NC(C)C [Compound 484] | – | 9.3 ng/mL | 0< | – |
